Assay results: PubChem BioAssay AID248 (DTP/NCI, 2004)
Values joined by “and” are separate entries in the source; they are usually repeats but may differ in a detail not shown here. Equal values may be shown once. Toxic doses and inconclusive results are not listed. Cut-off read from the data, not from the text of the source: active = T/C of 150% or more; inactive = T/C below 125%. Square brackets hold non-standard residues; d marks the D form. Peptide text beside a SMILES is read from it. ξ: configuration not given here. ξD = NC(CC(=O)O)C(=O)O

System: L1210 leukemia ip in BDF1 mice, survival T/C
Assay: NCI In Vivo Anticancer Drug Screen. Data for tumor model L1210 Leukemia (intraperitoneal) in B6D2F1 (BDF1) mice
Details: endpoint: mean survival time, higher = longer survival
In short: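 Each compound was tested against a transplantable tumor grown in mice. The endpoint was survival, with treated animals benchmarked against vehicle controls as a simple ratio.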

[1] = dose: 100.0 mg/kg/injection, schedule: Q01DX001 (ip), vehicle: Klucel (hydroxypropylcellulose) (HPC)
[2] = dose: 200.0 mg/kg/injection, schedule: Q01DX001 (ip), vehicle: Klucel (hydroxypropylcellulose) (HPC)
[3] = dose: 100.0 mg/kg/injection, schedule: Q01DX001 (ip), vehicle: saline
[4] = dose: 200.0 mg/kg/injection, schedule: Q01DX001 (ip), vehicle: saline
[5] = dose: 400.0 mg/kg/injection, schedule: Q01DX001 (ip), vehicle: saline
[6] = dose: 100.0 mg/kg/injection, schedule: Q01DX001 (ip), vehicle: carboxymethylcellulose (CMC)
[7] = dose: 200.0 mg/kg/injection, schedule: Q01DX001 (ip), vehicle: carboxymethylcellulose (CMC)
[8] = dose: 400.0 mg/kg/injection, schedule: Q01DX001 (ip), vehicle: carboxymethylcellulose (CMC)
[9] = dose: 100.0 mg/kg/injection, schedule: Q01DX009 (ip), vehicle: Klucel (hydroxypropylcellulose) (HPC)
[10] = dose: 200.0 mg/kg/injection, schedule: Q01DX009 (ip), vehicle: Klucel (hydroxypropylcellulose) (HPC)
[11] = dose: 50.0 mg/kg/injection, schedule: Q01DX001 (ip), vehicle: saline

Measured: T/C

CSC(=S)NNC(=O)c1ccc(C(F)(F)F)cc1
inactive: dose: 10.0 mg/kg/injection, schedule: Q04DX003 (ip), vehicle: saline 106 % of control | dose: 20.0 mg/kg/injection, schedule: Q04DX003 (ip), vehicle: saline 106 % of control | dose: 40.0 mg/kg/injection, schedule: Q04DX003 (ip), vehicle: saline 105 % of control

CC(=O)/C=C/c1ccc2c(c1)OCO2
inactive: dose: 25.0 mg/kg/injection, schedule: Q01DX009 (ip), vehicle: saline 105 % of control | dose: 50.0 mg/kg/injection, schedule: Q01DX009 (ip), vehicle: saline 96 % of control | dose: 100.0 mg/kg/injection, schedule: Q01DX009 (ip), vehicle: saline 110 % of control | dose: 200.0 mg/kg/injection, schedule: Q01DX009 (ip), vehicle: saline 94 % of control | dose: 400.0 mg/kg/injection, schedule: Q01DX009 (ip), vehicle: saline 102 % of control

NC1=NC=NCN1c1ccc(N)cc1
inactive: dose: 25.0 mg/kg/injection, schedule: Q01DX001 (ip), vehicle: saline with Tween-80 96 % of control | dose: 50.0 mg/kg/injection, schedule: Q01DX001 (ip), vehicle: saline with Tween-80 102 % of control | dose: 100.0 mg/kg/injection, schedule: Q01DX001 (ip), vehicle: saline with Tween-80 104 % of control

CC(CCl)=C(B1OC(C)(C)C(C)(C)O1)B1OC(C)(C)C(C)(C)O1
inactive: [1] 110 % of control | [2] 94 % of control | dose: 400.0 mg/kg/injection, schedule: Q01DX001 (ip), vehicle: Klucel (hydroxypropylcellulose) (HPC) 92 % of control

c1ccc(C[P+](Cc2ccccc2)(c2ccccc2)c2ccccc2)cc1
inactive: dose: 75.0 mg/kg/injection, schedule: Q01DX001 (ip), vehicle: saline 94 % of control

Clc1c(C(Cl)(Cl)Cl)nc2ccccc2c1Br
inactive: dose: 6.25 mg/kg/injection, schedule: Q01DX009 (ip), vehicle: Klucel (hydroxypropylcellulose) (HPC) 101 % of control | dose: 12.5 mg/kg/injection, schedule: Q01DX009 (ip), vehicle: Klucel (hydroxypropylcellulose) (HPC) 97 % of control | dose: 25.0 mg/kg/injection, schedule: Q01DX009 (ip), vehicle: Klucel (hydroxypropylcellulose) (HPC) 97 % of control

CC(=O)NCCc1ccc(N)cc1
inactive: [3] 108 % of control | [4] 101 % of control | [5] 98 % of control

Cc1cc(C)c(CCO)c(C)c1
inactive: dose: 25.0 mg/kg/injection, schedule: Q01DX009 (ip), vehicle: DMSO 98 % of control | dose: 25.0 mg/kg/injection, schedule: Q04DX003 (ip), vehicle: DMSO 93 % of control | dose: 50.0 mg/kg/injection, schedule: Q01DX009 (ip), vehicle: DMSO 96 % of control | dose: 50.0 mg/kg/injection, schedule: Q04DX003 (ip), vehicle: DMSO 102 % of control | dose: 100.0 mg/kg/injection, schedule: Q04DX003 (ip), vehicle: DMSO 102 % of control

Clc1ccc2nsnc2c1
inactive: [1] 105 % of control | [2] 114 % of control

CC(/C=N/NC(N)=S)=N\NC(N)=S
inactive: dose: 12.5 mg/kg/injection, schedule: Q01DX Z (oral), vehicle: carboxymethylcellulose (CMC) 106 % of control | dose: 25.0 mg/kg/injection, schedule: Q01DX Z (oral), vehicle: carboxymethylcellulose (CMC) 113 % of control | dose: 50.0 mg/kg/injection, schedule: Q01DX001 (ip), vehicle: carboxymethylcellulose (CMC) 97 % of control | dose: 50.0 mg/kg/injection, schedule: Q01DX Z (ip), vehicle: carboxymethylcellulose (CMC) 95 % of control | dose: 50.0 mg/kg/injection, schedule: Q01DX Z (oral), vehicle: carboxymethylcellulose (CMC) 113 % of control | [6] 101 % of control | dose: 100.0 mg/kg/injection, schedule: Q01DX Z (ip), vehicle: carboxymethylcellulose (CMC) 100 % of control | dose: 100.0 mg/kg/injection, schedule: Q01DX Z (oral), vehicle: carboxymethylcellulose (CMC) 124 % of control | [7] 91 % of control | dose: 200.0 mg/kg/injection, schedule: Q01DX Z (ip), vehicle: carboxymethylcellulose (CMC) 103 % of control | [8] 97 % of control | dose: 400.0 mg/kg/injection, schedule: Q01DX Z (ip), vehicle: carboxymethylcellulose (CMC) 103 % of control

COc1ccccc1NC(=O)NCCN1CCOCC1
inactive: [9] 103 % of control | [10] 95 % of control

Cc1ccc([I+]c2ccccc2C(=O)[O-])c(C)c1
inactive: [11] 98 % of control | [3] 102 % of control | [4] 104 % of control

COc1cccc2c1OC(COS(C)(=O)=O)CO2 (centres undefined) (tested in a mixture with another compound)
inactive: [6] 95 % of control | [7] 95 % of control | [8] 97 % of control

CCOC(=O)c1ccc(N=NC2C(=O)N(c3ccccc3)N=C2C)cc1 (centres undefined)
inactive: [3] 96 % of control | [4] 96 % of control

Nc1nc[nH]c1-c1n[nH]c(=O)[nH]1
inactive: [1] 108 % of control | [2] 104 % of control

COc1ccc(C2(OC)Oc3ccccc3C(=O)C2(O)OC)cc1OC (centres undefined)
inactive: [11] 105 % of control | [3] 103 % of control | [4] 100 % of control | [5] 97 % of control

Cc1cc(C)c(NC(=O)NCCCl)c(C)c1
inactive: dose: 50.0 mg/kg/injection, schedule: Q01DX009 (ip), vehicle: saline with Tween-80 103 % of control | dose: 100.0 mg/kg/injection, schedule: Q01DX009 (ip), vehicle: saline with Tween-80 109 % of control | dose: 100.0 mg/kg/injection, schedule: Q04DX003 (ip), vehicle: saline with Tween-80 91 % of control | dose: 200.0 mg/kg/injection, schedule: Q01DX009 (ip), vehicle: saline with Tween-80 116 % of control | dose: 200.0 mg/kg/injection, schedule: Q04DX003 (ip), vehicle: saline with Tween-80 93 % of control | dose: 400.0 mg/kg/injection, schedule: Q04DX003 (ip), vehicle: saline with Tween-80 117 % of control

NC(CC(=O)O)C(=O)NCC(=O)O (centres undefined) (H-[ξD]-Gly-OH)
inactive: dose: 12.5 mg/kg/injection, schedule: Q04DX002 (ip), vehicle: Klucel (hydroxypropylcellulose) (HPC) 98 % of control | dose: 25.0 mg/kg/injection, schedule: Q04DX002 (ip), vehicle: Klucel (hydroxypropylcellulose) (HPC) 94 % of control | dose: 50.0 mg/kg/injection, schedule: Q04DX002 (ip), vehicle: Klucel (hydroxypropylcellulose) (HPC) 94 % of control | dose: 100.0 mg/kg/injection, schedule: Q04DX002 (ip), vehicle: Klucel (hydroxypropylcellulose) (HPC) 117 % of control

O=c1[nH]c(=S)[nH]c2nccnc12
inactive: dose: 16.0 mg/kg/injection, schedule: Q01DX Z (ip), vehicle: methylcellulose (MC) 108 % of control | dose: 31.0 mg/kg/injection, schedule: Q01DX Z (ip), vehicle: methylcellulose (MC) 103 % of control | dose: 62.0 mg/kg/injection, schedule: Q01DX Z (ip), vehicle: methylcellulose (MC) 105 % of control | dose: 125.0 mg/kg/injection, schedule: Q01DX Z (ip), vehicle: methylcellulose (MC) 97 % of control and 106 % of control | dose: 250.0 mg/kg/injection, schedule: Q01DX Z (ip), vehicle: methylcellulose (MC) 97 % of control | dose: 500.0 mg/kg/injection, schedule: Q01DX Z (ip), vehicle: methylcellulose (MC) 106 % of control

C1CCC2C(C1)CCCC2CC1CCCC2CCCCC21 (centres undefined)
inactive: dose: 75.0 mg/kg/injection, schedule: Q01DX001 (ip), vehicle: acetone 100 % of control | dose: 150.0 mg/kg/injection, schedule: Q01DX001 (ip), vehicle: acetone 106 % of control | dose: 300.0 mg/kg/injection, schedule: Q01DX001 (ip), vehicle: acetone 100 % of control

CCCCCCCCC(=O)Nc1nc2nc[nH]c2c(=O)[nH]1
inactive: dose: 100.0 mg/kg/injection, schedule: Q01DX001 (ip), vehicle: other 94 % of control | [9] 94 % of control | dose: 200.0 mg/kg/injection, schedule: Q01DX001 (ip), vehicle: other 86 % of control | [10] 90 % of control | dose: 400.0 mg/kg/injection, schedule: Q01DX001 (ip), vehicle: other 86 % of control | dose: 400.0 mg/kg/injection, schedule: Q01DX009 (ip), vehicle: Klucel (hydroxypropylcellulose) (HPC) 90 % of control

Cc1cccc(Cl)c1OCC(=O)Nc1ccc(Cl)cc1
inactive: dose: 100.0 mg/kg/injection, schedule: Q04DX002 (ip), vehicle: saline with Tween-80 90 % of control | dose: 200.0 mg/kg/injection, schedule: Q04DX002 (ip), vehicle: saline with Tween-80 93 % of control | dose: 400.0 mg/kg/injection, schedule: Q04DX002 (ip), vehicle: saline with Tween-80 93 % of control
